Results as given in ChEMBL document CHEMBL1201862, “PubChem BioAssay data set” (2004).
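Growth conditions: 96-well plates. Treatment: test compound, 48 hours, 5 concentrations. Analysis: linear interpolation between bracketing concentrations; unreached endpoints set to highest concentration. GI50: concentration for 50% inhibition of growth.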 Activity calls are given as the source filed them. Cut-off read from the data, not from the text of the source: active = GI50 up to about 1.1 µM and inactive = higher.

Key:
Assay in all cases: DTP human tumour cell line panel, 48 h
HOP-92 = tested on: HOP-92
SK-OV-3 = tested on: SK-OV-3
NCI/ADR-RES = tested on: NCI/ADR-RES
IGROV-1 = tested on: IGROV-1
RXF 393 = tested on: RXF 393
SW-620 = tested on: SW-620
HT-29 = tested on: HT-29
DU-145 = tested on: DU-145
OVCAR-3 = tested on: OVCAR-3
SR = tested on: SR
CCRF-CEM = tested on: CCRF-CEM
U-251 = tested on: U-251
HCC 2998 = tested on: HCC 2998
ACHN = tested on: ACHN
NCI-H460 = tested on: NCI-H460
T47D = tested on: T47D
NCI-H226 = tested on: NCI-H226
OVCAR-5 = tested on: OVCAR-5
NCI-H522 = tested on: NCI-H522
SNB-75 = tested on: SNB-75

Measured: GI50

COC1CC(n2ccc(=O)[nH]c2=O)OC1CO (stereo unspecified)
inactive: HOP-92 > 100 µM | SK-OV-3 > 100 µM | NCI/ADR-RES > 100 µM | IGROV-1 > 100 µM | RXF 393 > 100 µM | SW-620 > 100 µM | HT-29 > 100 µM | DU-145 > 100 µM | OVCAR-3 > 100 µM | SR > 100 µM | CCRF-CEM > 100 µM | U-251 > 100 µM | HCC 2998 > 100 µM | ACHN > 100 µM | NCI-H460 > 100 µM | T47D > 100 µM | NCI-H226 > 100 µM | OVCAR-5 > 100 µM | NCI-H522 > 100 µM

CCOC(=O)c1cc2ncccc2c2ccccc12
inactive: HOP-92 > 100 µM | SK-OV-3 > 100 µM | NCI/ADR-RES > 100 µM | SNB-75 > 100 µM | IGROV-1 > 100 µM | RXF 393 > 100 µM | HT-29 > 100 µM | DU-145 > 100 µM | OVCAR-3 > 100 µM | SR > 100 µM | CCRF-CEM > 100 µM | U-251 > 100 µM | HCC 2998 > 100 µM | ACHN > 100 µM | NCI-H460 > 100 µM | T47D > 100 µM | NCI-H226 > 100 µM | OVCAR-5 > 100 µM | NCI-H522 > 100 µM

N#C/C(=C\c1cccc(Br)c1)c1nc2ccccc2c(=O)[nH]1
inactive: HOP-92 15.1 µM | SK-OV-3 > 100 µM | NCI/ADR-RES > 100 µM | SNB-75 17.7 µM | IGROV-1 > 100 µM | RXF 393 > 100 µM | SW-620 > 100 µM | HT-29 > 100 µM | DU-145 > 100 µM | SR 92.9 µM | CCRF-CEM > 100 µM | U-251 40.3 µM | HCC 2998 > 100 µM | ACHN 54.7 µM | NCI-H460 > 100 µM | T47D > 100 µM | NCI-H226 > 100 µM | OVCAR-5 > 100 µM | NCI-H522 37.9 µM

CN(C)CCCNC(=O)c1c(O)c2ccccc2[nH]c1=O
inactive: HOP-92 38.4 µM | SK-OV-3 > 100 µM | NCI/ADR-RES 88.5 µM | SNB-75 > 100 µM | IGROV-1 42 µM | RXF 393 95.7 µM | SW-620 > 100 µM | HT-29 > 100 µM | DU-145 > 100 µM | OVCAR-3 > 100 µM | SR > 100 µM | CCRF-CEM > 100 µM | HCC 2998 > 100 µM | ACHN > 100 µM | NCI-H460 > 100 µM | T47D > 100 µM | NCI-H226 > 100 µM | OVCAR-5 > 100 µM | NCI-H522 > 100 µM

Clc1ccc(OCc2nnc(COc3ccc(OCc4nnc(COc5ccc(Cl)cc5Cl)o4)c(Cl)c3)o2)c(Cl)c1
inactive: HOP-92 7.48 µM | NCI/ADR-RES 24.5 µM | IGROV-1 17.7 µM | RXF 393 20.1 µM | SW-620 70.1 µM | HT-29 27.4 µM | DU-145 71.3 µM | OVCAR-3 25.2 µM | SR 20.9 µM | CCRF-CEM 17.5 µM | U-251 23 µM | HCC 2998 28.7 µM | ACHN 40.6 µM | NCI-H460 72.4 µM | T47D 78.3 µM | NCI-H226 36.2 µM | OVCAR-5 36.2 µM | NCI-H522 18.1 µM

CC(=O)O[C@H]1CC[C@H]2[C@@H]3CCC4=C(C(=O)C=CC4(C)OC(C)=O)[C@H]3CC[C@]12C (stereo partly specified)
inactive: HOP-92 63.2 µM | NCI/ADR-RES 43.7 µM | SNB-75 45 µM | IGROV-1 > 100 µM | RXF 393 32.1 µM | SW-620 35.8 µM | HT-29 46.6 µM | DU-145 > 100 µM | OVCAR-3 47.6 µM | SR 47.3 µM | CCRF-CEM 31.6 µM | U-251 82.6 µM | HCC 2998 38.3 µM | ACHN 54 µM | NCI-H460 42.3 µM | T47D > 100 µM | NCI-H226 > 100 µM | OVCAR-5 > 100 µM | NCI-H522 45.8 µM

Cc1cc(S(=O)(=O)Nc2nc3ccccc3n2-c2ccccc2)c(S)cc1Cl
inactive: HOP-92 > 100 µM | NCI/ADR-RES > 100 µM | SNB-75 > 100 µM | IGROV-1 > 100 µM | RXF 393 > 100 µM | SW-620 > 100 µM | DU-145 > 100 µM | OVCAR-3 > 100 µM | SR 69.7 µM | CCRF-CEM > 100 µM | U-251 > 100 µM | HCC 2998 > 100 µM | ACHN > 100 µM | NCI-H460 56.5 µM | T47D 9.12 µM | NCI-H226 > 100 µM | OVCAR-5 > 100 µM | NCI-H522 > 100 µM
